Calls of active or inactive are those of the source. The calls are words filed in the database; no cut-off is given here.
Experiments:
[1] = test system: MDA-MB-231; assay: Antiproliferative activity against human MDA-MB-231 cells assessed as inhibition of cell growth incubated for 48 hrs by MTT assay; assay type: functional, cell-based; conditions: MDA-MB-231, 48 h
[2] = test system: A549; assay: cells; conditions: Homo sapiens, A549, 72 h
[3] = Cytotoxicity against human L02 cells assessed as inhibition of cell growth incubated for 72 hrs by MTT assay; assay type: toxicity, cell-based
[4] = test system: MDA-MB-231; assay: cells; conditions: Homo sapiens, MDA-MB-231, 72 h
[5] = test system: HeLa; assay: cells; conditions: Homo sapiens, 72 h
[6] = test system: MDA-MB-231; assay: Inhibition of RNA Polymerase II CTD phosphorylation at ser2 residue in human MDA-MB-231 cells at 1 uM incubated for 24 hrs by Western blotting analysis; assay type: cell-based
[7] = Selectivity index, ratio of IC50 for the cytotoxicity against human LO2 cells to IC50 for antiproliferative activity against human MDA-MB-231 cells; assay type: toxicity, cell-based; conditions: LO2 cells versus MDA-MB-231 cells, read-out: Ratio IC50

SMILES	IC50 [1]	IC50 [2]	IC50 at 72 h [3]	IC50 [4]	IC50 [5]	inhibition [6]	selectivity ratio [7]
O=P1(N(CCCl)CCCl)NCCCO1 (stereo not given) [CYCLOPHOSPHAMIDE ANHYDROUS]	> 50 µM	–	–	–	–	–	–
O=C(Nc1cc(-c2ccnc(N3CCC(O)CC3)c2)ccn1)c1ccccc1Cl	–	> 10 µM	> 10 µM	> 10 µM	> 10 µM	–	–
Cc1ccccc1C(=O)Nc1cc(-c2ccnc(N3CCC(O)CC3)c2)ccn1	–	> 10 µM	> 10 µM	> 10 µM	> 10 µM	–	–
Cc1ccc(C(=O)Nc2cc(-c3ccnc(N4CCCC(O)C4)c3)ccn2)cc1 (stereo not given)	–	> 10 µM	0.591 µM	0.726 µM	1.99 µM	–	–
COc1ccc(CC(=O)Nc2cc(-c3ccnc(N4CCC(O)CC4)c3)ccn2)cc1	–	> 10 µM	> 10 µM	7.86 µM	> 10 µM	Active	–
CCOc1ccc(C(=O)Nc2cc(-c3ccnc(N4CCC(O)CC4)c3)ccn2)cc1	–	5.34 µM	0.132 µM	0.103 µM	1.36 µM	Active	1
Cc1cccc(C(=O)Nc2cc(-c3ccnc(N4CCC(C)CC4)c3)ccn2)c1	–	> 10 µM	6.37 µM	3.14 µM	> 10 µM	–	–
CC(=O)O[C@H]1C(=O)[C@@]2(C)[C@H]([C@H](OC(=O)c3ccccc3)[C@]3(O)C[C@H](OC(=O)[C@H](O)[C@@H](NC(=O)c4ccccc4)c4ccccc4)C(C)=C1C3(C)C)[C@]1(OC(C)=O)CO[C@@H]1C[C@@H]2O [PACLITAXEL]	< 0.005 µM	–	–	–	–	–	–
COc1ccc(C(=O)Nc2cc(-c3ccnc(N4CCCC(CO)C4)c3)ccn2)cc1 (stereo not given)	–	2.44 µM	2.6 µM	0.076 µM	0.272 µM	–	34
COc1cc(C(=O)Nc2cc(-c3ccnc(N4CCC(O)CC4)c3)ccn2)cc(OC)c1OC	–	5.68 µM	> 10 µM	1.74 µM	5.73 µM	Active	–
O=C(Nc1cc(-c2ccnc(N3CCC(O)CC3)c2)ccn1)c1cc(Cl)cc(Cl)c1	–	> 10 µM	> 10 µM	> 10 µM	> 10 µM	–	–
COc1ccc(C(=O)Nc2cc(-c3ccnc(N4CCN(C)CC4)c3)ccn2)cc1	–	4.1 µM	> 10 µM	0.485 µM	> 10 µM	–	–
COc1cccc2c1C(=O)c1c(O)c3c(c(O)c1C2=O)C[C@@](O)(C(=O)CO)C[C@@H]3O[C@H]1C[C@H](N)[C@H](O)[C@H](C)O1 [DOXORUBICIN]	0.153 µM	–	–	–	–	–	–
Cc1ccc(C(=O)Nc2cc(-c3ccnc(N4CCC(O)CC4)c3)ccn2)cc1	–	2.4 µM	0.875 µM	0.261 µM	3.28 µM	Active	–
CCN1CCN(c2cc(-c3ccnc(NC(=O)c4ccc(OC)cc4)c3)ccn2)CC1	–	1.58 µM	6.89 µM	1 µM	3.26 µM	–	–
Cc1ccc(C(=O)Nc2cc(-c3ccnc(N4CCC(C)CC4)c3)ccn2)cc1	–	> 10 µM	> 10 µM	1.28 µM	3.85 µM	–	–
COc1ccc(C(=O)Nc2cc(-c3ccnc(N4CCC(N)CC4)c3)ccn2)cc1	–	2.37 µM	1.38 µM	1.16 µM	> 10 µM	–	–

Reference: ChEMBL document CHEMBL5634134, “Design, synthesis, and biological evaluation of novel 4,4'-bipyridine derivatives acting as CDK9-Cyclin T1 protein-protein interaction inhibitors against triple-negative breast cancer” (Eur J Med Chem, 2023)
